According to a melting point compilation (Tetko et al.; mined from patent text by program, amines drawn as free bases though some values may be those of a salt):

melting point [°C] | Compound
158 to 161 | Cc1ccc(S(=O)(=O)Nc2nc(-c3ccc(OCc4ccccc4)c(OCc4ccccc4)c3)cs2)cc1
109 to 111 | CNC(=O)c1oc(C(C)(C)C)cc1NC(=O)Nc1ccc(F)cc1
166 to 167 | O=c1ccn([C@@H]2C(F)=C(CCO)[C@@H](O)[C@H]2O)c(=O)[nH]1
95 to 100 | CS(=O)(=O)c1ccc(C(CC2CCCC2)C(=O)Nc2ccc3ccccc3n2)cc1Br (stereo not drawn)
166 to 168 | CC(C)c1ccc2c(c1)c(SC1CCCCC1)c(CC(C)(C)C(=O)O)n2Cc1ccc(Cl)cc1
> 250 | CCc1nc2c(N)nc3ccccc3c2n1CC1(O)CCOCC1
193 to 195 | CN1CCC(NC(=O)Nc2ccccc2CCc2cc(C(C)(C)C)c(O)c(C(C)(C)C)c2)CC1
172 to 173 | O=C(Nc1cccnc1)N1CCN(c2nc(-c3cccc(F)c3F)cs2)CC1
86 to 87 | CCCCCCCCCCNC1=CC(=O)c2c(OC)ccc(OC)c2C1=O
227 to 231 | Nc1nc(=O)n(C(=O)c2cc(F)cc(F)c2)cc1F
116 to 119 | Cc1nccn1C(=O)c1c(Cl)cccc1Cl
180 | O=C(c1ccccc1)c1ccc(O)c(Cl)c1
112 to 114 | CCCCCCCCCCCC(=O)NC1C(C)C(c2ccccc2)NC(c2ccccc2)C1C (stereo not drawn)
178 to 179 | CCCCOc1c(C(=O)O)n(CC2CC2)c(=O)c2ccc(OCc3ccccc3)cc12
172 to 173 | COc1ccc(C(=O)Nc2ccccc2)cc1NC(=S)Nc1ccc(Cl)c(C(F)(F)F)c1
122 to 123 | N#Cc1ccc(-c2cccc(C=O)c2)cc1
65.5 to 66.5 | Cc1cc(C)c(C(=O)c2ccc(Cl)cc2)c(C)c1
89 to 93.5 | CCOC1=NCCNC(c2ccccc2)=C1
290 to 292 | COC(=O)c1ccc2ncc(C(=O)NCc3ccc(Cl)cc3)c(O)c2c1
202 to 203 | COc1cc2c(c(Cl)c1Cl)C(=O)C(c1ccc(Br)cc1)C2 (stereo not drawn)

melting point [°C] | Compound
125 to 127 | Sc1c(Br)cc(Br)c(Br)c1S
195 | Clc1ccc(N2CCN(c3ccccn3)CC2)nn1
199 | CCC(C)Nc1c(-c2c(F)cc(F)cc2F)c(F)nc2ncncc12 (stereo not drawn)
110 to 112 | NC(=Nc1ccc(CCCC(=O)Oc2cccc(Nc3ccccc3)c2)cc1)c1cccs1
130 to 140 | c1c(N2CCNCC2)nc(N2CCC3(CC2)OCCO3)nc1N1CCC2(CC1)OCCO2
118 to 119 | CCCC(=O)ON=C(c1ccccc1)c1cc(C(C)(C)C)c(O)c(C(C)(C)C)c1
143 to 145 | CC(C)c1nc(C(C)C)c(CN2CCC(N3CCCCC3)CC2)c(-c2ccc(F)cc2)c1CO
135 to 137 | Cc1ccc(Cl)c(Nc2ccccc2-c2nsc(=O)o2)c1Cl
74 to 75.5 | CCc1nc(-c2ccc(OCCCn3ccnc3)cc2)no1
117 to 118 | COc1ccc(C2COc3ccc(-c4nnc(C)o4)cc32)cc1 (stereo not drawn)
138 to 148 | COC(=O)Nc1cc(Oc2ccc3c(C(=O)Nc4ccc(CN5CCNCC5)c(C(F)(F)F)c4)cccc3c2)ncn1
193 to 194 | Cc1ccc(OCC(=O)O)c(C(=O)NCc2cccc([N+](=O)[O-])c2)c1
84 to 86 | C[C@H](NC(=O)COCCNC(=O)C12CC3CC(CC(C3)C1)C2)C(=O)N[C@H](CCC(=O)O)C(N)=O
103 to 104 | O=C(c1cccc(Cl)n1)c1ccc(Cl)cc1Cl
160 to 175 | CC(CO)NCc1ccc(-c2cc3ncnc(Nc4ccc5[nH]ccc5c4)c3s2)cc1 (stereo not drawn)
78 to 80 | CC(C)NCC1COC(=O)C1(c1ccccc1)c1ccccc1 (stereo not drawn)
134 to 135 | CCCCC(=O)Nc1ncc(Br)c(C)c1[N+](=O)[O-]
278 to 281 | O=c1c2cc(O)ccc2[nH]c2c([N+](=O)[O-])cc([N+](=O)[O-])c(Cl)c12
91 to 92 | C[Si](C)(Cc1ccccc1)CN1C(=O)c2ccccc2C1=O
184 to 186 | CCOC(=O)c1cc2c(=O)n(CC)c3ccccc3n2c1

melting point [°C] | Compound
219 to 220 | CCc1n[nH]c2c1nc(-c1cccnc1)c1ccccc12
161 to 163 | O=C(O)C1c2cc(F)ccc2-c2ccc(F)cc21
75 to 79 | COC(=O)COc1ccc(C[C@H](NC(=O)OC(C)(C)C)C(=O)O)cc1
47 to 49 | C=C(C)COc1cc(Cl)ccc1[N+](=O)[O-]
286 to 288 | O=C(O)c1cc(C(=O)O)cc(S(=O)(=O)Nc2ccc(F)c(C(F)(F)F)c2)c1
138 to 141 | COc1ccc(C)cc1NC(=O)Nc1ccc(N2CCN(C(=O)Nc3ccc(CO)cc3C)CC2)cc1
148 to 149 | COc1cc(C=O)cc(OC)c1OCc1ccc([N+](=O)[O-])cc1
145 to 150 | C#Cc1ccnc(-c2cc(N)c(C#C[Si](C)(C)C)cc2[N+](=O)[O-])c1
94 to 95 | OCCCc1cnoc1-c1ccc(-c2ccccc2)cc1
122 to 126 | COc1ccc(Oc2ccc3nc(COc4ccc(CC5SC(=O)NC5=O)cc4)n(C)c3c2)cc1 (stereo not drawn)
55 to 57 | CCOC(=S)C(CC(=O)c1ccc(Oc2ccccc2)cc1)C(=O)CC (stereo not drawn)
218 to 220 | COc1cc2c(cc1-c1cccnc1)-c1c(C3NCCO3)c3c(n1CC2)C(=O)N(C(C)(C)C)CCC3 (stereo not drawn)
168 to 170 | Nc1nc(NCc2ccc(OCc3ccccc3)cc2)nc2nc(-c3ccco3)nn12
194 | CCOC(=O)C1=C(C)Nc2nc(N3CCOCC3)nc(N3CCOCC3)c2C1c1cccc(OC)c1OC (stereo not drawn)
123 to 124 | CCCc1nn(-c2ccc(C(F)(F)F)cn2)cc1CCCOc1nn(-c2ccccc2)cc1CC(=O)O
246 to 249 | Cc1ccc(S(=O)(=O)N=c2[nH]c3ccccc3s2)cc1
205 to 206 | CCOC(=O)/C=C/c1cn(-c2ccc(C(F)(F)F)cc2)nc1OCc1ccc(OCc2nc(-c3ccccc3)oc2C)c(OC)c1
246 to 250 | Cc1ccc(C(C#N)C(=O)C(=O)C(C#N)c2ccc(C)cc2)cc1 (stereo not drawn)
261 | O=C(NC(Cc1ccc(OCc2ccc(Cl)cc2)cc1)C(=O)O)c1cn2ccc(-c3ccc(Cl)cc3)cc2n1 (stereo not drawn)

More lines, now with the values behind:

Compound | melting point [°C]
CCOC(=O)C(O)CCc1ccc(OCCc2nc(-c3ccccc3)oc2C)cc1 (stereo not drawn) | 67 to 68
CCOCc1nnc(C)n1-c1ccc(Cl)cc1C(=O)O | 173 to 176
C=CCOc1ccc2ccc(NC(=O)c3ccc(OC)cc3)nc2n1 | 108
CSC1(SC)C(=O)CC2C3CCC4=CC(=O)C=CC4(C)C3(F)C(OC(C)=O)CC21C (stereo not drawn) | 225 to 227
CCOc1cc(OCC)c(C=[N+]([O-])C2CCCCC2)c(OCC)c1 | 146
COc1ccc(-n2nc(CBr)cc2-c2ccc(C)cc2)cc1 | 119 to 121
COc1ccc2ccc(OC)c3c2c1CCC3CCNC(C)=O (stereo not drawn) | 125
OCCc1ccc(Nc2ncc3c(n2)-c2ccccc2C(c2ccc(F)c(F)c2)C3)cc1 (stereo not drawn) | 170 to 172
CC(CCN(C)c1ccccc1)=NO | 46 to 49
Oc1cccc(N2CCCC2)n1 | 154 to 158
COc1ccc(CSc2nnc(-c3ccc4ncccc4c3)o2)cc1C(F)(F)F | 130 to 131
CCOC(=O)Cn1c(Br)c(Br)c(C#N)c1Br | 140 to 143
CC(C)N(CCOc1ccc(CC2SC(=O)NC2=O)cc1)C(C)C (stereo not drawn) | 134 to 135
COc1ccc(-c2cc(C(=O)C(F)(F)F)[nH]c2-c2ccc(OC)cc2)cc1 | 185 to 186
CN1CCN(c2cccc3c2C[C@H](NC(=O)CCCc2ccccc2)CC3)CC1 | 137 to 139
O=S(=O)(Nc1cc(F)c(Cl)cc1I)c1ccccc1 | 122 to 124
CCCCCCCCCCc1c(C(=O)O)sc2c1sc1c3sc(C(=O)O)c(CCCCCCCCCC)c3sc21 | 316 to 318
CC(=O)c1cccc(N=P(c2ccccc2)(c2ccccc2)c2ccccc2)c1 | 135 to 136
COC(=O)C(CNC(=O)Cc1ccc(OC)c(OC)c1)c1ccc(OC)c(OC)c1 (stereo not drawn) | 92 to 93
N[C@@H](CC(=O)c1ccc2oc3ccccc3c2c1)C(=O)O | 182 to 187

Compound | melting point [°C]
FC(F)(F)c1ccc(Nc2ccccc2C=C(Br)Br)cc1 | 74 to 75
Oc1ccc2c(c1)OCC(c1cccc(F)c1)C2c1ccc(OCCN2CCCC2)cc1 (stereo not drawn) | 146 to 150
CCOC(=O)N1CCC(=C2c3ccc(Cl)cc3OCc3cc(Br)cnc32)CC1 | 148 to 149
COc1ccc(N2CCN(c3c(C)c4c(c(C)c3Br)OC(C)(C)C4)CC2)cc1 | 180 to 181
CC(=O)NC(C)(C)Cc1ccc(N(C)C)cc1 | 156 to 157
COC(=O)c1ccc(-c2nc3cc(C(=O)OC)ccc3o2)cc1 | 195 to 210
O=C1N(c2c(Cl)cccc2Cl)Cc2cnc(NCC3CCCCC3)nc2N1c1ccccc1 | 229 to 233
C[C@@]12CCCN1[C@@H](C(Cl)(Cl)Cl)OC2=O | 55 to 57
N#Cc1ccc(N2CCC(F)(F)C2)c2ccsc12 | 169 to 170
CCCCCCC(O)CCCCCCCCCCC(=O)NCC(O)CNCCO (stereo not drawn) | 97.7 to 99.6
COc1ccc(-c2nc(CCCCCC(C)(C)c3nnn[nH]3)oc2-c2ccc(OC)cc2)cc1 | 82
Cc1nc(-n2cc(OCc3ccccc3)ccc2=O)sc1C(=O)NCc1ccccc1 | 166 to 167
Cc1cc(OC(=O)C(C)(C)C)cc(C)c1O | 92 to 94
CC(=O)NC[C@H]1CN(c2ccc3c(c2)CS(=O)(=O)N3C)C(=O)O1 | 84 to 86
Cc1ccc(Cn2cc(C(=O)C(=O)O)c3cc(-c4ccccc4)ccc32)cc1 | 195 to 196
NC(=NOCC1CC1)c1c(C(F)(F)F)ccc(C(F)(F)F)c1Cl | 75 to 80
CCCOC(C)c1ccc(O)cc1 (single isomer, unassigned; (+)) | 61 to 63
CCc1nnc(NS(=O)(=O)c2ccc(NC(C)=O)cc2)s1 | 197 to 198
CC#CC=NNC(=O)c1cc(OC)cc(Oc2cccc(C(F)(F)F)c2)n1 | 147 to 148
